Results from PubChem BioAssay (NCI).
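These data come from cells grown in 96-well plates and exposed to compound for 48 hours at five concentrations. The concentration for full growth arrest is given as TGI.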

Tests used:
Assay in all cases: growth of human tumour cells (NCI), 48 h
NCI-H522 lung = tested on: NCI-H522 lung
MOLT-4 leukemia = tested on: MOLT-4 leukemia
TK-10 renal = tested on: TK-10 renal
SK-OV-3 ovarian = tested on: SK-OV-3 ovarian
EKVX NSCLC = tested on: EKVX NSCLC
CCRF-CEM leukemia = tested on: CCRF-CEM leukemia
UACC-257 melanoma = tested on: UACC-257 melanoma
LOX IMVI melanoma = tested on: LOX IMVI melanoma
SF-295 CNS = tested on: SF-295 CNS
HCC-2998 colon = tested on: HCC-2998 colon

Compound	TGI (NCI-H522 lung)	TGI (MOLT-4 leukemia)	TGI (TK-10 renal)	TGI (SK-OV-3 ovarian)	TGI (EKVX NSCLC)	TGI (CCRF-CEM leukemia)	TGI (UACC-257 melanoma)	TGI (LOX IMVI melanoma)	TGI (SF-295 CNS)	TGI (HCC-2998 colon)
Brc1ccccc1-c1ncc(-c2ccccc2)o1	49.9 µM	49.6 µM	> 100 µM	> 100 µM	> 100 µM	54.7 µM	> 100 µM	34.1 µM	> 100 µM	80.4 µM
COc1cc(C2c3cc4c(cc3[C@@H](Nc3cccc(C(C)=O)c3)C3COC(=O)[C@H]23)OCO4)cc(OC)c1O (some centres undefined)	5.77 µM	0.129 µM	–	5.28 µM	> 22.3 µM	0.231 µM	8.57 µM	4.38 µM	1.39 µM	3.23 µM
CC1(C)N=C(N)N=C(N)N1c1cccc(OCCOc2ccc([N+](=O)[O-])cc2)c1	> 100 µM	> 100 µM	> 100 µM	> 100 µM	> 100 µM	> 100 µM	> 100 µM	> 100 µM	> 100 µM	–
COc1ccc(CC(C)N)cc1 (centres undefined)	> 100 µM	> 100 µM	> 100 µM	> 100 µM	> 100 µM	> 100 µM	> 100 µM	> 100 µM	> 100 µM	> 100 µM
CC(C)(Br)C1(O)CCCN1C(=O)c1ccccc1 (centres undefined)	> 100 µM	> 100 µM	> 100 µM	> 100 µM	> 100 µM	> 100 µM	> 100 µM	> 100 µM	> 100 µM	> 100 µM
NCc1ccccc1C1CSCSC1	> 100 µM	> 100 µM	> 100 µM	> 100 µM	–	> 100 µM	> 100 µM	> 100 µM	> 100 µM	–
CC12Cc3cc4c(cc3C1(c1ccc([N+](=O)[O-])cc1)OCCO2)OCO4 (centres undefined)	> 100 µM	> 100 µM	> 100 µM	47.6 µM	> 100 µM	> 100 µM	> 100 µM	> 100 µM	57.7 µM	> 100 µM
O=C(CSCC(=O)N/N=C\c1ccc(-c2ccccc2)cc1)N/N=C\c1ccc(-c2ccccc2)cc1	37.2 µM	> 100 µM	64.2 µM	38.9 µM	> 100 µM	–	> 100 µM	32.4 µM	40.9 µM	–
c1ccc(-c2nn(-c3ccccc3)[n+](-c3ccccc3)n2)cc1	> 86.3 µM	> 100 µM	> 88 µM	> 100 µM	> 43 µM	> 39.8 µM	11.7 µM	> 92.4 µM	> 100 µM	23.7 µM
Cc1ccc(S(N)(=O)=O)cc1	> 1000 µM	> 1000 µM	> 1000 µM	> 1000 µM	> 1000 µM	> 1000 µM	> 1000 µM	> 1000 µM	> 1000 µM	> 1000 µM
COc1ccc(NC(=O)/C(=C/c2ccc(N(CCC#N)CCC#N)cc2)NC(=O)c2cc([N+](=O)[O-])ccc2Cl)cc1	> 100 µM	> 100 µM	> 100 µM	> 100 µM	> 100 µM	> 100 µM	–	> 100 µM	73.2 µM	> 100 µM
CCOC(=O)/C=C(\C)c1ccc(OC)cc1	–	–	> 100 µM	–	> 100 µM	–	> 100 µM	> 100 µM	> 100 µM	> 100 µM
c1ccc(CSc2nc(N3CCOCC3)c3cn[nH]c3n2)cc1	33.1 µM	> 100 µM	51.6 µM	> 100 µM	48 µM	36 µM	29.9 µM	44.1 µM	78 µM	69.2 µM
CC[n+]1c(/C=C/c2ccc(N(CCCl)CCCl)cc2)ccc2cc(NC(=O)/C=C/c3ccccc3)ccc21	1.17 µM	1.69 µM	24.5 µM	2.81 µM	4.76 µM	0.831 µM	1.13 µM	1.51 µM	7.81 µM	1.37 µM
